In brackets after ≈: the same amount, converted by molar mass. Residues, ends and D or L forms follow the SMILES beside them. Where only a bound is given, the exact number is not on record here.

For this series the following is noted: buffer; pH 7.4; 200.0 µM.
In the case of `CCOC(=O)c1ccc(S(=O)(=O)N2CCN(C(=O)c3ccccn3)CC2)cc1`, the kinetic solubility is > 60.5 µg/mL. As for `Cc1cc(NC(=O)c2ccc(F)cc2)ccc1NC(=O)c1ccco1`, the figure is 3.4 µg/mL (≈ 10 µM); as for `O=S(=O)(NC1Cc2ccccc2C1)c1ccccc1`, > 41 µg/mL.

Regarding `CCC(C)N1C(=O)CCC1C(=O)NCCc1ccc(Cl)cc1` (stereo not drawn), the solubility (kinetic) is > 48.4 µg/mL. As for `Cc1ccc(S(=O)(=O)NCC(=O)OCC(=O)N2C(C)CCCC2C)cc1` (stereo not drawn), the figure is 53.9 µg/mL (≈ 141 µM); as for `COc1ccc(C2=CSC3=NCCN23)cc1[N+](=O)[O-]`, 40.2 µg/mL (≈ 145 µM); as for `CC(C)Cn1c(N)cc(=O)n(C)c1=O`, 22.2 µg/mL (≈ 113 µM). The compound `CCCOC(=O)c1ccc(NC(=O)c2ccccc2[N+](=O)[O-])cc1` had a kinetic solubility of 11 µg/mL (≈ 33.5 µM). For `O=C(O)c1ccc(S(=O)(=O)NCC2CCCCC2)cc1` the value was > 44.6 µg/mL. `O=C(Nc1ccccc1C(F)(F)F)c1cnccn1`: the solubility (kinetic) was 21.5 µg/mL (≈ 80.5 µM). With `COc1ccc(Cl)cc1NC(=O)COC(C)=O`, the solubility (kinetic) is > 38.7 µg/mL. For `Cc1ccc([N+](=O)[O-])cc1NC(=O)C(C)N1CCCCC1` (stereo not drawn) the value was 40.4 µg/mL (≈ 139 µM); for `Cc1ccc(CCC(=O)Nc2ccc(C#N)cc2)o1`, 37 µg/mL (≈ 146 µM). For the compound `CCC(=O)c1cn(CC(=O)Nc2cccc(C)c2C)c2ccccc12`, the kinetic solubility was < 0.4 µg/mL. With `CCOC(=O)CNc1nc(Cl)nc(N2CCCCC2)n1`, the kinetic solubility worked out at 12.3 µg/mL (≈ 41 µM).

`COc1ccc(NC(=O)NC2CCCCCCC2)c(OC)c1` displayed a kinetic solubility of 5.5 µg/mL (≈ 18 µM).

`Cc1cccc(OCCC(=O)Nc2ccc(C)c(S(=O)(=O)N3CCOCC3)c2)c1`: the kinetic solubility was 21.5 µg/mL (≈ 51.4 µM). This solubility kinetic is about 3.9-fold higher than that of the compound before. For `Cc1ccc(C(=O)NCC(=O)NCCCc2ccccc2)s1` the value was 24.9 µg/mL (≈ 78.7 µM); for `CCOc1ccc(NC(=O)CN2C(=O)NC3(CCCCCC3)C2=O)cc1`, > 53.9 µg/mL.

As to `CC1=CC=CC2=NC(=O)CC(C)(C(=O)O)N12` (stereo not drawn), the kinetic solubility is > 33 µg/mL. Consider `O=C(CSc1ccsc1[N+](=O)[O-])NCc1ccccc1`, for which the solubility (kinetic) amounted to 9 µg/mL (≈ 29.2 µM). As for `CN(Cc1ccco1)C(=O)CCc1nc2sc3c(c2c(=O)[nH]1)CCCC3`, the figure is 22.4 µg/mL (≈ 60.3 µM). For `O=C1CC(=O)N(Cc2ccccc2)C(=S)N1` the value was > 35.1 µg/mL; for `O=C(NCCCNC(=O)c1ccccn1)c1ccc(F)cc1`, > 45.2 µg/mL; for `O=Cc1ccc(Oc2ncccn2)cc1`, > 30 µg/mL. Compound `CC(C)OC(=O)NCCOC(=O)Nc1ccc(Cl)cc1` showed a solubility (kinetic) of 36.5 µg/mL (≈ 121 µM). For `NC1C2CN3CCN(C2)CC1(c1ccccc1)C3` (stereo not drawn) the value was > 36.5 µg/mL. For `CC(=O)c1ccc(NC(=O)Cc2ccsc2)cc1` the value was > 38.9 µg/mL. With `COc1ccc(NC(=O)NCc2cccnc2)cc1`, the kinetic solubility is > 38.6 µg/mL. The compound `CCOC(=O)CN1C(=O)C(=O)N(Cc2c(Cl)cccc2Cl)C1=O` returned a kinetic solubility of 30.6 µg/mL (≈ 85.2 µM).

On to `O=C(Cn1c(=O)oc2ccccc21)Nc1ccccc1Cl`, for which the kinetic solubility came to 6.8 µg/mL (≈ 22.5 µM). This solubility kinetic is about 4.5-fold lower than that of the compound before. For `Cc1ccc(C(C)NC(=O)Cc2cccs2)cc1C` (stereo not drawn) the value was > 41 µg/mL. For `COCc1nc2oc3ccccc3c(=O)c2cc1C(=O)OC` the value was 19.7 µg/mL (≈ 65.8 µM); for `O=C(Nc1nnc(-c2ccco2)o1)c1cccc(N2C(=O)CCC2=O)c1`, > 52.8 µg/mL; for `CCOc1ccc(NC(=O)C2C3CC/C=C\CCC32)cc1` (stereo not drawn), < 0.6 µg/mL. As for `CC(OC(=O)c1ccc(S(=O)(=O)NCc2ccco2)cc1)C(=O)Nc1ccccc1` (stereo not drawn), the figure is 7.4 µg/mL (≈ 17.3 µM); as for `Cc1ccc(S(=O)(=O)Nc2ccc(Oc3cccnc3)nc2)cc1`, 16.8 µg/mL (≈ 49.2 µM); as for `Cc1ccc2nc(-c3ccccc3)c(CN3CCOCC3)n2c1`, > 46.1 µg/mL. As for `O=Cc1ccc(OCC(=O)N2CCOCC2)cc1`, the kinetic solubility is > 37.4 µg/mL.

The compound `O=C(Nc1cccc(Cl)c1)OC1CN2CCC1CC2` (stereo not drawn) showed a kinetic solubility of 3.6 µg/mL (≈ 12.8 µM). As for `COc1ccccc1/C=C/C(=O)NC1CC2CCC1C2` (stereo not drawn), the figure is 2 µg/mL (≈ 7.37 µM); as for `CCOCCCNC(=O)CN1C(=O)c2cccc3cccc1c23`, > 46.9 µg/mL. For `COc1ccc(NC(=O)CCSc2nc(C)cs2)cc1` the value was > 46.3 µg/mL; for `CCN(C(=O)COC(=O)c1ccccc1OCc1ccc(Cl)cc1)C1CCS(=O)(=O)C1` (stereo not drawn), 25 µg/mL (≈ 53.7 µM); for `COc1ccc(OC(=O)N2CCOCC2)cc1`, > 35.6 µg/mL.

In the case of `Cc1cc(Br)ccc1NC(=O)C1C2CCC(O2)C1C(=O)O` (stereo not drawn), the solubility (kinetic) was > 53.1 µg/mL. `Cn1c(=O)n(CCc2ccccc2)c2ccccc21`: the solubility (kinetic) was determined as 29.2 µg/mL (≈ 116 µM).

`CCCCN(C(=O)CSc1ncnc2sccc12)c1c(N)n(Cc2ccccc2)c(=O)[nH]c1=O` returned a solubility (kinetic) of 3.9 µg/mL (≈ 7.85 µM). For `CCCCOc1ccc(C(=O)NCCc2cccs2)cc1`, the kinetic solubility was 1.3 µg/mL (≈ 4.28 µM).

In turn, `CCCOc1ccc(C(=O)Nc2ccc(CN3CCOCC3)cc2)cc1` returned a solubility (kinetic) of 4.1 µg/mL (≈ 11.6 µM). Compared with the last compound, the solubility kinetic is about 3.2-fold higher. On to `Cc1ccc2oc(=O)cc(CN3CC(C)OC(C)C3)c2c1` (stereo not drawn), for which the kinetic solubility is > 43.1 µg/mL. As for `C=CCNC(=S)NC(=O)c1csc([N+](=O)[O-])c1`, the figure is 38.5 µg/mL (≈ 142 µM); as for `CCOC(=O)c1ccc(NCc2cccnc2)cc1`, > 38.4 µg/mL.

As to `CCCNS(=O)(=O)c1ccc(OCC(=O)NCC2CCCO2)cc1` (stereo not drawn), the solubility (kinetic) was 51.2 µg/mL (≈ 144 µM). For `Cc1ccc(C(=O)OCC(=O)NC(=O)Cc2ccccc2)c(O)c1` the value was 12 µg/mL (≈ 36.7 µM). For `CCCC(=O)N=c1sc2c(OC)ccc(OC)c2n1C`, the kinetic solubility was < 0.3 µg/mL. For `O=C(N/N=C/c1cccnc1)c1cc(C2CC2)nc2ccccc12`, the kinetic solubility was > 47.5 µg/mL. For `Cl.N=c1ccn(Cc2ccc(F)cc2)cc1` the value was > 35.8 µg/mL; for `O=C(Cc1ccccc1F)N1CCN(CC(=O)N2CCCC2)CC1`, > 50 µg/mL; for `CC(=O)c1ccc(OCCCOc2cccc3cccnc23)cc1`, 12.2 µg/mL (≈ 38 µM).

`S=C(Nc1ccccc1Cl)N1CCC(c2ccccc2)C1` (stereo not drawn) gave a solubility (kinetic) of 17.9 µg/mL (≈ 56.5 µM). As for `Cc1ccc(O)c(NC(=O)C2CC(c3cccc(Br)c3)=NO2)c1` (stereo not drawn), the figure is < 0.4 µg/mL; as for `O=C(O)C(=O)O.c1ccc(CCNC2CCCCCC2)cc1`, 45.3 µg/mL; as for `Cc1ccc(C(=O)N2CCN(C)CC2)cc1[N+](=O)[O-]`, > 39.5 µg/mL. As for `CCN1CCc2nc3ccccc3c(C(=O)Nc3ccc(F)cc3)c2C1`, the figure is 8.3 µg/mL (≈ 23.8 µM).

Take `COC(=O)/C=C1\SC(=NC(=O)c2ccc(-c3ccccc3)cc2)NC1=O`: the solubility (kinetic) was 2.6 µg/mL (≈ 7.1 µM).

`Cc1cccc(C)c1OCCN1CCCC1`: the kinetic solubility came to 28.7 µg/mL (≈ 131 µM). As for `CC12CC3(C)CC(C)(C1)CC(C(=O)NC(=S)N1CCCC1)(C2)C3`, the figure is < 0.4 µg/mL; as for `O=C1N=C(N2CCOCC2)S/C1=C\c1cccnc1`, > 41.3 µg/mL.

In the case of `O=C(OCC(=O)N1CCCCCC1)c1ccc(Br)c(S(=O)(=O)N2CCOCC2)c1`, the kinetic solubility is > 73.4 µg/mL. As for `NC(N)=O`, the figure is > 9 µg/mL; as for `S=c1[nH]ccn1-c1cccc(Cl)c1Cl`, > 36.8 µg/mL. In turn, `CCOc1ccc(OCC)c(S(=O)(=O)NCc2ccccc2)c1` gave a kinetic solubility of 40.7 µg/mL (≈ 121 µM). For `Cn1ccsc1=NC(=O)c1ccc(Cl)c([N+](=O)[O-])c1` the value was 0.5 µg/mL (≈ 1.68 µM); for `O=C(Nc1cc2c3c(c1)CC(=O)N3CCC2)c1ccccc1F`, 46.4 µg/mL (≈ 150 µM).

Regarding `COc1ccc(S(=O)(=O)N2CCOCC2)cc1NC(=O)CSc1ncccn1`, the solubility (kinetic) came out at 13.8 µg/mL (≈ 32.5 µM). For `CN(C)S(=O)(=O)c1ccc(C(=O)OCC(=O)N2CC3(C)CC2CC(C)(C)C3)cc1` (stereo not drawn) the value was > 63.4 µg/mL; for `CC(=O)Nc1ccc(Oc2ccc(NC(C)=O)c(NC(C)=O)c2)cc1`, > 51.2 µg/mL; for `Cc1ccc(C)c(C(=O)N2CCN(c3ncccn3)CC2)c1`, > 44.5 µg/mL. `N#CC(C#N)=Cc1cccnc1` showed a solubility (kinetic) of 19.5 µg/mL (≈ 126 µM).

Regarding `CN(CC(=O)O)S(=O)(=O)c1ccc2c(c1)n(C)c(=O)c(=O)n2C`, the solubility (kinetic) is > 51.2 µg/mL. As for `COC(=O)c1ccc(CNC(=O)COC(=O)/C=C/c2ccc(OC)c(OC)c2)cc1`, the figure is 6.6 µg/mL (≈ 16 µM); as for `CC(=O)NC(Cc1ccccc1)C(=O)NC(Cc1ccccc1)C(=O)O` (stereo not drawn) (Ac-Phe-Phe-OH; configuration not given here), 52.4 µg/mL (≈ 148 µM). On to `Cc1csc(SCC(=O)NCc2cccc(Cl)c2)n1`, for which the kinetic solubility is > 46.9 µg/mL. In the case of `CCOC(=O)N1CCN(S(=O)(=O)c2ccc3c4c(cccc24)C(=O)N3)CC1`, the solubility (kinetic) turned out to be 3.6 µg/mL (≈ 9.24 µM). For the compound `CC(=O)N(C)c1ccc(N=Cc2c(O)ccc3ccccc23)cc1`, the solubility (kinetic) is > 47.8 µg/mL. As for `N#CCc1ccc(OC(=O)c2cccnc2)cc1`, the figure is > 35.7 µg/mL; as for `CN(C)c1nc(N(C)C)nc(N(C#N)CCCl)n1`, 19.2 µg/mL (≈ 71.2 µM). Regarding `CCOC(=O)c1cc(C)nc(SC)c1C#N`, the solubility (kinetic) came out at 16.9 µg/mL (≈ 71.5 µM). The solubility kinetic values of the last two compounds are within 1.5-fold of each other. As for `CCCN1CCN(S(=O)(=O)c2cn(C)nc2C)CC1`, the figure is > 43 µg/mL.

With `CC(C)[C@H](NC(=O)c1ccc(Cl)c([N+](=O)[O-])c1)C(=O)O`, the solubility (kinetic) is > 45.1 µg/mL. As for `CC(C)(CNC(=O)c1cccc(F)c1)CNC(=O)c1cccc(F)c1`, the figure is 13.2 µg/mL (≈ 38.1 µM); as for `O=C(CCN1C(=O)COc2ccccc21)N1CCN(c2ccccc2)CC1`, 47 µg/mL (≈ 129 µM). For `O=C(/C=C/c1ccco1)NCc1ccc2c(c1)OCO2` the value was > 40.7 µg/mL; for `CC(C)CNC(=S)NC(=O)c1csc([N+](=O)[O-])c1`, 2.8 µg/mL (≈ 9.74 µM). Take `C=CCNc1nc(-c2c(C)nc3ncccn23)cs1`: the kinetic solubility is > 40.7 µg/mL. For `Cc1cc(Cl)nc(Cl)c1C(=O)NC(=O)NCCC(C)C` the value was 34.7 µg/mL (≈ 109 µM); for `CCOc1ccc(NC(=O)CCC(=O)c2ccc(F)cc2)cc1`, 2.5 µg/mL (≈ 7.93 µM).

Regarding `O=C(Nc1ccc(F)cc1)N1CCN(C(=O)C2CCCO2)CC1` (stereo not drawn), the kinetic solubility is > 48.2 µg/mL. As for `CN(CC(=O)NCCc1ccc(S(N)(=O)=O)cc1)CC(=O)Nc1ccccc1C(F)(F)F`, the figure is > 70.9 µg/mL; as for `Cc1nn(CC(=O)NCc2cccnc2)c(C)c1[N+](=O)[O-]`, > 43.4 µg/mL; as for `O=C1CSc2ccc(C(=O)NCc3ccccn3)cc2N1`, > 44.9 µg/mL.

Consider `CCOC(=O)c1ccc2c(c1)N(C)C(=O)c1ccccc1S2`, for which the solubility (kinetic) was found to be 7.7 µg/mL (≈ 24.6 µM).

As usually defined, the solubility (kinetic) is the concentration staying in solution when a stock, usually in DMSO, is diluted into the medium.

For the origin of these results see PubChem BioAssay AID1996.
